Values quoted from earlier work as cited in patent publication US20080241292A1, “COMPOSITION AND METHOD FOR WEIGHT LOSS” (IOMEDIX DEVELOPMENT INTERNATIONAL SRL, priority 2006, published 2008).
Ends that are not written are not given here.

B1: Cholecystokinin (peptide, UniProt P06307 21-115, looked up)
Cholecystokinin: QPVPPADPAGSGLQRAEEAPRRQLRVSQRTDGESRAHLGALLARYIQQARKAPSGRMSIVKNLQNLDPSHRISDRDYMGWMDFGRRSAEEYEYPS
modifications: Cholecystokinin
notes: satiety signal peptide secreted from intestinal cells in response to nutrients

Assays:
[1] = humans
[2] = exogenous administration to humans

Molecule	satiety [1]	food intake [2]
Glucagon-like peptide-1 (HAEGTFTSDVSSYLEGQAAKEFIAWLVKGR; ends and bridges not checked; UniProt P01275 98-127, looked up) [GLP-1, satiety signal peptide]	increase satiety	–
B1	–	reduction in food intake
